The subject of one assay is HT1080 cells. The assay is described as follows: Cellular assay, inhibition of 2-HG production in HT1080 cells. The format is cell-based. The settings on record: Homo sapiens, HT-1080, 48 h. As to the method: Cells (HT1080 or U87MG) are grown in T125 flasks in DMEM containing 10% FBS, 1× penicillin/streptomycin and 500 ug/mL G418 (present in U87MG cells only). They are harvested by trypsin and seeded into 96 well white bottom plates at a density of 5000 cell/well in 100 ul/well in DMEM with 10% FBS. […] Cells are incubated overnight at 37° C. in 5% CO2. The next day test compounds are made up at 2× the final concentration and 100 ul are added to each cell well. The final concentration of DMSO is 0.2% and the DMSO control wells are plated in row G. The plates are then placed in the incubator for 48 hours. […] The cell plate is placed back in the incubator for another 24 hours. At 72 hours post compound addition, 10 mL/plate of Promega Cell Titer Glo reagent is thawed and mixed. The cell plate is removed from the incubator and allowed to equilibrate to room temperature. Then 100 ul of Promega Cell Titer Glo reagent is added to each well of media. The cell plate is then placed on an orbital shaker for 10 minutes and then allowed to sit at room temperature for 20 minutes. The plate is then read for luminescence with an integration time of 500 ms.

The next assay deals with U87MG cells. Description: Cellular assay, inhibition of 2-HG production in U87MG cells. The format is cell-based. The settings on record: Homo sapiens, U-87 MG, 48 h. In outline:
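HT1080 or U87MG cells (U87MG kept with 500 ug/mL G418) seeded at 5000 cells/well and treated with compound at 0.2% final DMSO. Incubated 48 h at 37 °C. 2-HG inhibition determined by LC-MS. Viability read by CellTiter-Glo luminescence at 72 h post-dose.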

On to `O=C(NC1CCC(F)(F)C1)C(c1ccccc1Cl)N(C(=O)[C@@H]1CCC(=O)N1c1ncccn1)c1cccc(F)c1` (mixture of isomers) [Compound 73, (2S)—N-(1-(2-Chlorophenyl)-2-((3,3-difluorocyclopentyl)amino)-2-oxoethyl)-N-(3-fluorophenyl)-5-oxo-1-(pyrimidin-2-yl)pyrrolidine-2-carboxamide], for which the IC50 in the assay with HT1080 cells and in the assay with U87MG cells was less than 100 nM each time. In turn, `O=C(NC1CCC(F)(F)CC1)[C@@H](c1ccccc1Cl)N(C(=O)[C@@H]1CCC(=O)N1c1ncccn1)c1cccc(F)c1` [Compound 3, (S)—N—((R)-1-(2-Chlorophenyl)-2-((4,4-difluorocyclohexyl)amino)-2-oxoethyl)-N-(3-fluorophenyl)-5-oxo-1-(pyrimidin-2-yl)pyrrolidine-2-carboxamide] displayed a 50% inhibitory concentration (IC50) with HT1080 cells of 100 to 500 nM. The same measure, in the same setting: next, `O=C(NC1CCCCC1)[C@@H](c1ccccc1Cl)N(C(=O)[C@@H]1CCC(=O)N1c1ncccn1)c1cccc(F)c1` [Compound 6]: 100 to 500 nM; `Cc1cccc(N2C(=O)CC[C@H]2C(=O)N(c2cccc(F)c2)[C@H](C(=O)NC2CC(F)(F)C2)c2ccccc2Cl)n1` [Compound 28]: less than 100 nM. `C[S@+]([O-])c1cc(F)cc(N(C(=O)[C@@H]2CCC(=O)N2c2cc(C#N)ccn2)[C@H](C(=O)NC2CC(F)(F)C2)c2ccccc2Cl)c1` [Compound 190, (S)—N—((S)-1-(2-Chlorophenyl)-2-(3,3-difluorocyclobutylamino)-2-oxoethyl)-1-(4-cyanopyridin-2-yl)-N-(3-fluoro-5-((S)-methylsulfinyl)phenyl)-5-oxopyrrolidine-2-carboxamide] had an IC50 in the assay with U87MG cells of less than 100 nM. `N#Cc1cc(C#N)cc(N(C(=O)[C@@H]2CCC(=O)N2c2cc(C#N)ccn2)C(C(=O)NC2CC(F)(F)C2)c2ccccc2Cl)c1` (stereo partly drawn) [Compound 191, (2S)—N-(1-(2-Chlorophenyl)-2-((3,3-difluorocyclobutyl)amino)-2-oxoethyl)-1-(4-cyanopyridin-2-yl)-N-(3,5-dicyanophenyl)-5-oxopyrrolidine-2-carboxamide] returned an IC50 with U87MG cells of less than 100 nM. Still for that read-out and setting: next, `N#Cc1ccnc(N2C(=O)CC[C@H]2C(=O)N(c2cncc(F)c2)[C@H](C(=O)NC2CCC(F)(F)CC2)c2ccccc2Cl)c1` [Compound 193, (S)—N—((S)-1-(2-Chlorophenyl)-2-(4,4-difluorocyclohexylamino)-2-oxoethyl)-1-(4-cyanopyridin-2-yl)-N-(5-fluoropyridin-3-yl)-5-oxopyrrolidine-2-carboxamide]: less than 100 nM; `N#Cc1ccnc(N2C(=O)CC[C@H]2C(=O)N(c2cccc(OC(F)F)c2)[C@H](C(=O)NC2CC(F)(F)C2)c2ccccc2Cl)n1` [Compound 194, (S)—N—((S)-1-(2-Chlorophenyl)-2-((3,3-difluorocyclobutyl)amino)-2-oxoethyl)-1-(4-cyanopyrimidin-2-yl)-N-(3-(difluoromethoxy)phenyl)-5-oxopyrrolidine-2-carboxamide]: less than 100 nM. The compound `N#Cc1ccnc(N2C(=O)CC[C@H]2C(=O)N(c2cc(F)cc(F)c2)C(C(=O)NC2CC(F)(F)C2)c2cccc(Cl)c2Cl)c1` (stereo partly drawn) [Compound 195, (2S)-1-(4-Cyanopyridin-2-yl)-N-(1-(2,3-dichlorophenyl)-2-(3,3-difluoro-cyclobutylamino)-2-oxoethyl)-N-(3,5-difluorophenyl)-5-oxopyrrolidine-2-carboxamide] gave an IC50 with U87MG cells of less than 100 nM. Still for that read-out and setting: the same measure for `N#Cc1ccnc(N2C(=O)CC[C@H]2C(=O)N(c2cc(F)cc(F)c2)[C@H](C(=O)NC2CC(F)(F)C2)c2ccc(Cl)cc2Cl)c1` [Compound 196, (S)-1-(4-Cyanopyridin-2-yl)-N—((S)-1-(2,4-dichlorophenyl)-2-((3,3-difluorocyclobutyl)-amino)-2-oxoethyl)-N-(3,5-difluorophenyl)-5-oxopyrrolidine-2-carboxamide]: less than 100 nM; for `N#Cc1ccnc(N2C(=O)CC[C@H]2C(=O)N(c2cc(F)ccc2F)[C@H](C(=O)NC2CC(F)(F)C2)c2ccccc2Cl)c1` [Compound 197, (S)—N—((S)-1-(2-Chlorophenyl)-2-((3,3-difluorocyclobutyl)amino)-2-oxoethyl)-1-(4-cyanopyridin-2-yl)-N-(2,5-difluorophenyl)-5-oxopyrrolidine-2-carboxamide]: less than 100 nM; for `N#Cc1ccnc(N2C(=O)CC[C@H]2C(=O)N(c2cc(F)cc(F)c2)[C@H](C(=O)NC2CC(F)(F)C2)c2ncccc2Cl)c1` [Compound 198, (S)—N—((S)-1-(3-Chloropyridin-2-yl)-2-(3,3-difluorocyclobutylamino)-2-oxoethyl)-1-(4-cyanopyridin-2-yl)-N-(3,5-difluorophenyl)-5-oxopyrrolidine-2-carboxamide]: less than 100 nM. Same read-out and setting: the same measure for `N#Cc1ccnc(N2C(=O)CC[C@H]2C(=O)N(c2cc(F)cc(F)c2)[C@H](C(=O)NC2CC(F)(F)C2)c2c(Cl)cccc2Cl)c1` [Compound 199, (S)-1-(4-Cyanopyridin-2-yl)-N—((S)-1-(2,6-dichlorophenyl)-2-((3,3-difluorocyclobutyl)amino)-2-oxoethyl)-N-(3,5-difluorophenyl)-5-oxopyrrolidine-2-carboxamide]: less than 100 nM; for `N#Cc1ccnc(N2C(=O)CC[C@H]2C(=O)N(c2cc(F)cc(F)c2)[C@H](C(=O)NC2CC(F)(F)C2)c2cc(Cl)ccc2Cl)c1` [Compound 201, (S)-1-(4-Cyanopyridin-2-yl)-N—((S)-1-(2,5-dichlorophenyl)-2-((3,3-difluorocyclobutyl)-amino)-2-oxoethyl)-N-(3,5-difluorophenyl)-5-oxopyrrolidine-2-carboxamide]: less than 100 nM. `N#Cc1ccnc(N2C(=O)CC[C@H]2C(=O)N(c2cc(F)cc(C3CC3)c2)[C@H](C(=O)NC2CCC(F)(F)CC2)c2ccccc2Cl)c1` [Compound 202, (S)—N—((S)-1-(2-Chlorophenyl)-2-((4,4-difluorocyclohexyl)amino)-2-oxoethyl)-1-(4-cyanopyridin-2-yl)-N-(3-cyclopropyl-5-fluorophenyl)-5-oxopyrrolidine-2-carboxamide] had an IC50 with U87MG cells of less than 100 nM. On the same count and under the same terms, next, `N#Cc1ccnc(N2C(=O)CC[C@H]2C(=O)N(c2ccc3[nH]ncc3c2)[C@H](C(=O)NC2CCC(F)(F)CC2)c2ccccc2Cl)c1` [Compound 203, (S)—N—((S)-1-(2-Chlorophenyl)-2-((4,4-difluorocyclohexyl)amino)-2-oxoethyl)-1-(4-cyanopyridin-2-yl)-N-(1H-indazol-5-yl)-5-oxopyrrolidine-2-carboxamide]: less than 100 nM. Regarding `N#Cc1ccnc(N2C(=O)CC[C@H]2C(=O)N(c2cc(F)cc(C3CC3)c2)[C@H](C(=O)NC2CC(F)(F)C2)c2ccccc2Cl)c1` [Compound 204, (S)—N—((S)-1-(2-Chlorophenyl)-2-((3,3-difluorocyclobutyl)amino)-2-oxoethyl)-1-(4-cyanopyridin-2-yl)-N-(3-cyclopropyl-5-fluorophenyl)-5-oxopyrrolidine-2-carboxamide], the IC50 in the assay on U87MG cells was less than 100 nM.

Turning to `N#Cc1ccnc(N2C(=O)CC[C@H]2C(=O)N(c2ccc3[nH]ccc3c2)[C@H](C(=O)NC2CC(F)(F)C2)c2ccccc2Cl)c1` [Compound 206, (S)—N—((S)-1-(2-Chlorophenyl)-2-((3,3-difluorocyclobutyl)amino)-2-oxoethyl)-1-(4-cyanopyridin-2-yl)-N-(1H-indol-5-yl)-5-oxopyrrolidine-2-carboxamide], the IC50 in the assay on U87MG cells is less than 100 nM. Compound `N#Cc1cc(F)cc(N(C(=O)[C@@H]2CCC(=O)N2c2cc(C#N)ccn2)[C@H](C(=O)NC2CC(F)(F)C2)c2ccccc2F)c1` [Compound 207, (S)—N-(3-Cyano-5-fluorophenyl)-1-(4-cyanopyridin-2-yl)-N—((S)-2-((3,3-difluorocyclobutyl)amino)-1-(2-fluorophenyl)-2-oxoethyl)-5-oxopyrrolidine-2-carboxamide] came in with an IC50 with U87MG cells of less than 100 nM. In the assay with U87MG cells, `Cn1ccc2cc(N(C(=O)[C@@H]3CCC(=O)N3c3cc(C#N)ccn3)[C@H](C(=O)NC3CC(F)(F)C3)c3ccccc3Cl)ccc21` [Compound 209, (S)—N—((S)-1-(2-Chlorophenyl)-2-((3,3-difluorocyclobutyl)amino)-2-oxoethyl)-1-(4-cyanopyridin-2-yl)-N-(1-methyl-1H-indol-5-yl)-5-oxopyrrolidine-2-carboxamide] returned an IC50 of less than 100 nM. Still for that read-out and setting: the same measure for `N#Cc1ccnc(N2C(=O)CC[C@H]2C(=O)N(c2cc(F)cc(F)c2)[C@H](C(=O)NC2CC(F)(F)C2)c2ccccc2)c1` [Compound 210, (S)-1-(4-Cyanopyridin-2-yl)-N—((S)-2-(3,3-difluorocyclobutylamino)-2-oxo-1-phenylethyl)-N-(3,5-difluorophenyl)-5-oxopyrrolidine-2-carboxamide]: less than 100 nM; for `N#Cc1cc(F)cc(N(C(=O)[C@@H]2CCC(=O)N2c2cc(C#N)ccn2)[C@H](C(=O)NC2CC(F)(F)C2)c2ccccc2)c1` [Compound 211, (S)—N-(3-Cyano-5-fluorophenyl)-1-(4-cyanopyridin-2-yl)-N—((S)-2-(3,3-difluorocyclobutyl-amino)-2-oxo-1-phenylethyl)-5-oxopyrrolidine-2-carboxamide]: less than 100 nM.

As usually defined, the IC50 is the concentration that inhibits the measured activity by half. Read a high IC50 as weaker potency.

The values are drawn from US10640534B2 (Agios Pharmaceuticals, Inc., priority 2012, dated 2020).
